Measurements taken from patent publication US10751293B2, “Polymer fiber scaffolds and uses thereof” (CASE WESTERN RESERVE UNIVERSITY, priority 2015, dated 2020).

Assay: thermogravimetric analysis (TGA), thermal stability

## Clc1ccccc1C(c1ccccc1)(c1ccccc1)n1ccnc1 [Clotrimazole]
180° C.
  stability at the processing temperature: stable
non-isothermal mode
  temperature above which decomposition begins: above 190 °C
